From patent publication US20090325975A1, “Use of compounds binding to the sigma receptor for the treatment of diabetes-associated pain” (priority 2005, published 2009)
pIC50: −log10 of the molar value.

What was measured:
[1] = system: mechanical allodynia in STZ-induced mice; assay: von-Frey test, mechanical allodynia in STZ-induced diabetic mice; format: in vivo; settings: paw withdrawal response to von-Frey filaments
From the text: The pancreatic β-cell cytotoxic agent STZ is widely used to induce diabetes in rodents. The glucosamine-nitrosourea compound STZ is taken up into the insulin-producing β-cells of the islets of Langerhan's via the GLUT-2 glucose transporter. The cytotoxic effect of STZ is mediated through a decrease in NAD levels, and the formation of intracellular free radicals leading to various toxic effects, including DNA-strand breaks (Schnedl et al., 1994). […] STZ-induced diabetic rodents show common features of human diabetes that include damage to the eye, kidney, blood vessels, and nervous system. Diabetic neuropathic pain occurs mainly due to the damage in the nervous system (Sima and Sugimoto, 1999).
Method: In the present study, diabetes is induced in mice by a single i.v. injection of STZ (200 mg/kg) as reported previously (Kamei et al., 1991; Rashid and Ueda, 2002). […] The plasma glucose level in the mice is measured in blood samples obtained from tail vein. […]
Thermal hyperalgesia and mechanical allodynia is measured at different time points (1-21 days) after STZ injection. Mechanical allodynia is measured using von-Frey filaments, a well-established method known by those skilled in the art, where the paw withdrawal response is measured. Similarly, thermal hyperalgesia is measured as the latency to paw withdrawal evoked by exposing the right hind paw to a thermal stimulus. […]

[2] = molecular target: sigma-2 (Homo sapiens, UniProt Q5BJF2); settings: cited from earlier work
[3] = molecular target: sigma-1 (Homo sapiens, UniProt Q99720); settings: cited from earlier work
[4] = system: sigma receptor; settings: result in words; cited from earlier work

sigma-2, sequence (Q5BJF2 whole entry): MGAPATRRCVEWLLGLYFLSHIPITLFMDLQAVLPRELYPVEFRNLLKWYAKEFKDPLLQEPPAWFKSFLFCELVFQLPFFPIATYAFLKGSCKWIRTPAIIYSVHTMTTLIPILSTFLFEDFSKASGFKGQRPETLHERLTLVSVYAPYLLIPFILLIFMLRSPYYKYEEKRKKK
sigma-1, sequence (Q99720 whole entry): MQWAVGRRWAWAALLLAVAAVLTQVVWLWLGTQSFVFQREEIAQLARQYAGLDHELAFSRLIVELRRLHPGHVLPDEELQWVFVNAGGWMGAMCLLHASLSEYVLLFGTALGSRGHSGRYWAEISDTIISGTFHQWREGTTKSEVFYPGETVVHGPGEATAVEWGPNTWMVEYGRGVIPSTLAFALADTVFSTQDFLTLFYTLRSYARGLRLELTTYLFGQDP

CN1CCN(CCc2ccc(Cl)c(Cl)c2)CC1 [BD-1063, 1-(3,4-dichlorophenethyl)-4-methylpiperazine]
effect on mechanical allodynia in the von-Frey test [1]: significantly antagonizes mechanical allodynia
pIC50 [2]: 6.10
pIC50 [3]: 7.52
affinity to the sigma receptor [4]: high affinity

CC(C)=CCN1CCC2(C)c3cc(O)ccc3CC1C2C (centres unmarked) [pentazocine]
affinity to the sigma receptor [4]: very high affinity
